Results published in US6559140B2 (Abbott Laboratories, priority 2000, dated 2003).

Target: H3 receptor (Rattus norvegicus, UniProt Q9QYN8)
Assay: H3 receptor binding, (3H)-N-α-methylhistamine displacement in rat cortical membranes
Details: male Sprague-Dawley rat brain cortical membranes, 30 minutes at 25° C., Cheng-Prusoff, geometric mean values of 2-10 separate experiments
Protocol: Briefly, male Sprague-Dawley rat brain cortices were homogenized (1 g tissue/10 mL buffer) in 50 mM Tris-HCl/5 mM EDTA containing protease inhibitor cocktail (Calbiochem) using a polytron set at 20,500 rpm. Homogenates were centrifuged for 20 minutes at 40,000×g. The supernatant was decanted, and pellets were weighed. The pellet was resuspended by polytron homogenization in 40 mL 50 mM Tris-HCl/5 mM EDTA with protease inhibitors and centrifuged for 20 minutes at 40,000×g. […] Test compounds were added to the incubation mixtures prior to initiating the incubation assay by addition of the membranes. Thioperamide (3 μM) was used to determine nonspecific binding. Binding incubations were conducted for 30 minutes at 25° C. and terminated by addition of 2 mL of ice cold 50 mM Tris-HCl (H 7.7) and filtration through 0.3% polyethylenimine-soaked Unifilter plates (Packard). These filters were washed 4 additional times with 2 mL of ice-cold 50 mM Tris-HCl and dried for 1 hour. Radioactivity was determined using liquid scintillation counting techniques. Results were analyzed by Hill transformation and Ki values were determined using the Cheng-Prusoff equation.

Sequence of H3 receptor (Q9QYN8 1-397 isoform Q9QYN8-3): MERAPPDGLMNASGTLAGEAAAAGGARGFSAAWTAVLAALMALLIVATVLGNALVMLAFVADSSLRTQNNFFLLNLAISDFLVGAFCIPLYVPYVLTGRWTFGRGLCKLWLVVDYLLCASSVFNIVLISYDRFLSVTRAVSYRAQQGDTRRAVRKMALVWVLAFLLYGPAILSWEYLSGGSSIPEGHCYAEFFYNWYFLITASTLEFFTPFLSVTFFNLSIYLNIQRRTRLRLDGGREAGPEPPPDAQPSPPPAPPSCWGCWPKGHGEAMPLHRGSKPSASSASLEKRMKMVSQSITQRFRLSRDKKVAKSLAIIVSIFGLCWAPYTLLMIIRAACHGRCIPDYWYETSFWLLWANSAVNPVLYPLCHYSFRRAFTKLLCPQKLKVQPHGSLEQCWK

Row | SMILES | Ki
1 | C[C@@H](NC(=O)c1cccs1)C(=O)N1CCN(CCCOc2ccc(-c3noc(-c4ccccc4)n3)c(F)c2)CC1 [Example 159, N-[(1R)-2-(4-{3-[3-fluoro-4-(5-phenyl-1,2,4-oxadiazol-3-yl)phenoxy]propyl}-1-piperazinyl)-1-methyl-2-oxoethyl]-2-thiophenecarboxamide] | 4.98 nM
2 | CC(C)CCc1nc(-c2ccc(OCCCN3CCCN(C(=O)[C@@H](C)NC(=O)c4ccco4)CC3)cc2F)no1 [Example 142, N-[(1R)-2-(4-{3-[3-fluoro-4-(5-isopentyl-1,2,4-oxadiazol-3-yl)phenoxy]propyl}-1,4-diazepan-1-yl)-1-methyl-2-oxoethyl]-2-furamide] | 0.72 nM
3 | C[C@@H](NC(=O)c1cccs1)C(=O)N1CCN(CCCOc2ccc(-c3noc(CCC(=O)N4CCCC4)n3)c(F)c2)CC1 [Example 190, N-((1R)-2-{4-[3-(3-fluoro-4-{5-[3-oxo-3-(1-pyrrolidinyl)propyl]-1,2,4-oxadiazol-3-yl}phenoxy)propyl]-1-piperazinyl}-1-methyl-2-oxoethyl)-2-thiophenecarboxamide] | 7.69 nM
4 | O=C(NCCC(=O)N1CCN(CCCOc2ccc(-c3noc(-c4ccccc4)n3)c(F)c2)CC1)c1ccsc1 [Example 154, N-[3-(4-{3-[3-fluoro-4-(5-phenyl-1,2,4-oxadiazol-3-yl)phenoxy]propyl}-1-piperazinyl)-3-oxopropyl]-3-thiophenecarboxamide] | 25 nM
5 | C[C@@H](NC(=O)CC(C)(C)C)C(=O)N1CCN(CCCOc2ccc(-c3noc(CC4CCCC4)n3)c(F)c2)CC1 [Example 171, N-{(1R)-2-[4-(3-{4-[5-(cyclopentylmethyl)-1,2,4-oxadiazol-3-yl]-3-fluorophenoxy}propyl)-1-piperazinyl]-1-1-methyl-2-oxoethyl}-3,3-dimethylbutanamide] | 5.42 nM
6 | C[C@@H](NC(=O)c1cccnc1)C(=O)N1CCN(CCCOc2ccc(-c3noc(-c4ccccc4)n3)c(F)c2)CC1 [Example 160, N-[(1R)-2-(4-{3-[3-fluoro-4-(5-phenyl-1,2,4-oxadiazol-3-yl)phenoxy]propyl}-1-piperazinyl)-1-methyl-2-oxoethyl]nicotinamide] | 2.29 nM
7 | O=C(NCCC(=O)N1CCN(CCCOc2ccc(-c3noc(-c4ccccc4)n3)c(F)c2)CC1)[C@H]1CCCO1 [Example 155, (2R)-N-[3-(4-{3-[3-fluoro-4-(5-phenyl-1,2,4-oxadiazol-3-yl)phenoxy]propyl}-1-piperazinyl)-3-oxopropyl]tetrahydro-2-furancarboxamide] | 17.1 nM
8 | C[C@@H](NC(=O)[C@H]1CCCN1)C(=O)N1CCN(CCCOc2ccc(C(=O)C3CC3)cc2)CC1 [Example 129, (2R)-N-((1R)-2-(4-(3-(4-(cyclopropylcarbonyl)phenoxy)propyl)-1-piperazinyl)-1-methyl-2-oxoethyl)-2-pyrrolidinecarboxamide] | 0.425 nM
9 | CCCCCC(=O)c1ccc(OCCCN2CCN(C(=O)[C@H](N)CO)CC2)cc1 [Example 52, 1-(4-(3-(4-((2R)-2-amino-3-hydroxypropanoyl)-1-piperazinyl)propoxy)phenyl)-1-hexanone] | 8.39 nM
10 | COc1ccc(C(=O)N[C@H](C)C(=O)N2CCN(CCCOc3ccc(-c4noc(CC5CCCC5)n4)c(F)c3)CC2)cc1 [Example 175, N-{(1R)-2-[4-(3-{4-[5-(cyclopentylmethyl)-1,2,4-oxadiazol-3-yl]-3-fluorophenoxy}propyl)-1-piperazinyl]-1-methyl-2-oxoethyl}-4-methoxybenzamide] | 1.88 nM
11 | O=C(c1ccc(OCCCN2CCCN(C(=O)C[C@@H]3CCCN3)CC2)cc1)C1CC1 [Example 124, Cyclopropyl(4-(3-(4-((2S)-pyrrolidinylacetyl)-1,4-diazepan-1-yl)propoxy)phenyl)methanone] | 4.03 nM
12 | COc1ccc(OC)c(C(=O)N[C@H](C)C(=O)N2CCN(CCCOc3ccc(C(=O)C4CC4)cc3)CC2)c1 [Example 197, N-[(1R)-2-(4-{3-[4-(cyclopropylcarbonyl)phenoxy]propyl}-1-piperazinyl)-1-methyl-2-oxoethyl]-2,5-dimethoxybenzamide] | 3.1 nM
13 | C[C@@H](NC(=O)c1ccco1)C(=O)N1CCCN(CCCOc2ccc(-c3noc(-c4ccncc4)n3)c(F)c2)CC1 [Example 150, N-{(1R)-2-[4-(3-{3-fluoro-4-[5-(4-pyridinyl)-1,2,4-oxadiazol-3-yl]phenoxy}propyl)-1,4-diazepan-1-yl]-1-methyl-2-oxoethyl}-2-furamide] | 12.6 nM
14 | COc1ccc(C(=O)N[C@H](C)C(=O)N2CCN(CCCOc3ccc(-c4noc(CC5CCCC5)n4)c(F)c3)CC2)cc1F [Example 185, N-{(1R)-2-[4-(3-{4-[5-(cyclopentylmethyl)-1,2,4-oxadiazol-3-yl]-3-fluorophenoxy}propyl)-1-piperazinyl]-1-methyl-2-oxoethyl}-3-fluoro-4-methoxybenzamide] | 3.28 nM
15 | C[C@@H](N)C(=O)N1CCN(CCCOc2ccc(-c3ccc(C#N)cc3)cc2)CC1 [Example 100] | 12.4 nM
16 | CCC(=O)N[C@H](C)C(=O)N1CCN(CCCOc2ccc(-c3noc(CC4CCCC4)n3)c(F)c2)CC1 [Example 170, N-{(1R)-2-[4-(3-{4-[5-(cyclopentylmethyl)-1,2,4-oxadiazol-3-yl]-3-fluorophenoxy}propyl)-1-piperazinyl]-1-methyl-2-oxoethyl}propanamide] | 8.74 nM
17 | CC(C)(C)[C@@H](N)C(=O)N1CCN(CCCOc2ccc(C(=O)C3CC3)cc2)CC1 [Example 66, (4-(3-(4-((2R)-2-amino-3,3-dimethylbutanoyl)-1-piperazinyl)propoxy)phenyl)(cyclopropyl)methanone] | 12.1 nM

More lines, in order of falling Ki, values ahead:

Row | Ki | SMILES
18 | 13 nM | C[C@@H](NC(=O)c1ccno1)C(=O)N1CCN(CCCOc2ccc(-c3noc(-c4ccccc4)n3)c(F)c2)CC1 [Example 162, N-[(1R)-2-(4-{3-[3-fluoro-4-(5-phenyl-1,2,4-oxadiazol-3-yl)phenoxy]propyl}-1-piperazinyl)-1-methyl-2-oxoethyl]-5-isoxazolecarboxamide]
19 | 11.7 nM | O=C(NCCC(=O)N1CCN(CCCOc2ccc(-c3noc(-c4ccccc4)n3)c(F)c2)CC1)C1CCCC1 [Example 158, N-[3-(4-{3-[3-fluoro-4-(5-phenyl-1,2,4-oxadiazol-3-yl)phenoxy]propyl}-1-piperazinyl)-3-oxopropyl]cyclopentanecarboxamide]
20 | 6.79 nM | C[C@@H](N)C(=O)N1CCN(CCCOc2ccc(-c3noc(CC4CCCC4)n3)c(F)c2)CC1 [Example 168, (2R)-1-[4-(3-{4-[5-(cyclopentylmethyl)-1,2,4-oxadiazol-3-yl]-3-fluorophenoxy}propyl)-1-piperazinyl]-1-oxo-2-propanamine]
21 | 6.37 nM | C[C@@H](NC(=O)CCN1CCOCC1)C(=O)N1CCN(CCCOc2ccc(-c3noc(-c4ccccc4)n3)c(F)c2)CC1 [Example 164, N-[(1R)-2-(4-{3-[3-fluoro-4-(5-phenyl-1,2,4-oxadiazol-3-yl)-phenoxy]propyl}-1-piperazinyl)-1-methyl-2-oxoethyl]-3-(4-morpholinyl)propanamide]
22 | 6.24 nM | C[C@@H](NC(=O)c1ccco1)C(=O)N1CCCN(CCCOc2ccc(-c3noc(-c4nccs4)n3)c(F)c2)CC1 [Example 149, N-{(1R)-2-[4-(3-{3-fluoro-4-[5-(1,3-thiazol-2-yl)-1,2,4-oxadiazol-3-yl]phenoxy}propyl)-1,4-diazepan-1-yl]-1-methyl-2-oxoethyl}-2-furamide]
23 | 4.64 nM | O=C(c1ccc(OCCCN2CCN(C(=O)C[C@H]3CCCN3)CC2)cc1)C1CC1 [Example 86, Cyclopropyl(4-(3-(4-((2R)-pyrrolidinylacetyl)-1-piperazinyl)propoxy)phenyl)methanone]
24 | 3.94 nM | C[C@@H](NC(=O)c1ccco1)C(=O)N1CCCN(CCCOc2ccc(-c3noc(-c4cccs4)n3)c(F)c2)CC1 [Example 148, N-{(1R)-2-[4-(3-{3-fluoro-4-[5-(2-thienyl)-1,2,4-oxadiazol-3-yl]phenoxy}propyl)-1,4-diazepan-1-yl]-1-methyl-2-oxoethyl}-2-furamide]
25 | 2.72 nM | C[C@@H](NC(=O)c1ccc2c(c1)OCO2)C(=O)N1CCN(CCCOc2ccc(-c3noc(CC4CCCC4)n3)c(F)c2)CC1 [Example 183]
26 | 1.22 nM | C[C@@H](NC(=O)c1ccc(Cl)c(Cl)c1)C(=O)N1CCN(CCCOc2ccc(-c3noc(CC4CCCC4)n3)c(F)c2)CC1 [Example 176, 3,4-dichloro-N-{(1R)-2-[4-(3-{4-[5-(cyclopentylmethyl)-1,2,4-oxadiazol-3-yl]-3-fluorophenoxy}propyl)-1-piperazinyl]-1-methyl-2-oxoethyl}benzamide]
27 | 1.11 nM | COc1cccc(C(=O)N[C@H](C)C(=O)N2CCN(CCCOc3ccc(C(=O)C4CC4)cc3)CC2)c1 [Example 193, N-[(1R)-2-(4-{3-[4-(cyclopropylcarbonyl)phenoxy]propyl}-1-piperazinyl)-1-methyl-2-oxoethyl]-3-methoxybenzamide]
28 | 1.01 nM | C[C@@H](NC(=O)c1ccco1)C(=O)N1CCCN(CCCOc2ccc(-c3noc(CCc4ccccc4)n3)c(F)c2)CC1 [Example 152, N-{(1R)-2-[4-(3-{3-fluoro-4-[5-(2-phenylethyl)-1,2,4-oxadiazol-3-yl]phenoxy}propyl)-1,4-diazepan-1-yl]-1-methyl-2-oxoethyl}-2-furamide]
29 | 0.74 nM | C[C@H](CCOc1ccc(C(=O)C2CC2)cc1)N1CCN(C(=O)[C@@H](C)NC(=O)OC(C)(C)C)CC1 [Example 61, Tert-butyl (1R)-2-(4-((1R)-3-(4-(cyclopropylcarbonyl)phenoxy)-1-methylpropyl)-1-piperazinyl)-1-methyl-2-oxoethylcarbamate]
